Data: patent US20190127354A1, “2,4,6,7-TETRASUBSTITUTED QUINOLINE COMPOUNDS AS INHIBITORS OF DNA […]” (FUNDACIÓN PARA LA INVESTIGACIÓN MÉDICA APLICADA, priority 2015, published 2019)

Columns and labels:
HepG2 = assay: Cell proliferation assay (CellTiter 96 Aqueous One Solution); assay type: cell-based; conditions: Homo sapiens, hepatocellular carcinoma cells, 48 hours of treatment
Experimental: (§1) Cell proliferation was analyzed after 48 hours of in vitro treatment using the CellTiter 96 Aqueous One Solution Cell Proliferation Assay (Promega, Madison, W). This is a colorimetric method for determining the number of viable cells in proliferation.
(§2) For the assay, suspension cells were cultured by triplicate at a density of 1×10^6 cells/ml in 96-well plates (100.000 cells/well, 100 μl/well), except for HepG2, Hep3B and PLC/PRF/5 cell lines which were cultured at a density of 3000 cells/well, 100 μl/well).
(§3) Adherent cells were obtained from 80-90% confluent flasks and 100 μl of cells were seeded at a density of 5000 cells/well in 96-well plates by triplicate. Before addition of the compounds, adherent cells were allowed to attach to the bottom of the wells for 12 hours. In all cases, only the 60 inner wells were used to avoid any border effects.
(§4) After 48 hours of treatment, plates with suspension cells were centrifuged at 800g for 10 minutes and medium was removed. The plates with adherent cells were flicked to remove medium. Then, cells were incubated with 100 μl/well of medium and 20 μl/well of CellTiter 96 Aqueous One Solution reagent. After 1-3 hours of incubation at 37° C., absorbance was measured at 490 nm in a 96-well plate reader. The background absorbance was measured in wells with only cell line medium and solution reagent. Data was calculated as a percentage of total absorbance of treated cell/absorbance of non treated cells.

CEMO-1 = assay: as above; assay type: cell-based; conditions: acute lymphocytic leukemia (ALL) cells, 48 hours of treatment
Experimental: as §1, §2, §3, §4

Hep3B = assay: as above; assay type: cell-based; conditions: Homo sapiens, hepatocellular carcinoma cells, 48 hours of treatment
Experimental: as §1, §2, §3, §4

human G9a enzyme = molecular target: T1, human G9a enzyme (Homo sapiens, UniProt Q96KQ7); assay: G9a enzyme activity assay (TR-FRET); assay type: biochemical; conditions: 1 hour at room temperature
T1 construct: purchased BPS Biosciences 51001; host or cells: baculovirus infected Sf9 cells
T1 sequence (Q96KQ7 1-1210): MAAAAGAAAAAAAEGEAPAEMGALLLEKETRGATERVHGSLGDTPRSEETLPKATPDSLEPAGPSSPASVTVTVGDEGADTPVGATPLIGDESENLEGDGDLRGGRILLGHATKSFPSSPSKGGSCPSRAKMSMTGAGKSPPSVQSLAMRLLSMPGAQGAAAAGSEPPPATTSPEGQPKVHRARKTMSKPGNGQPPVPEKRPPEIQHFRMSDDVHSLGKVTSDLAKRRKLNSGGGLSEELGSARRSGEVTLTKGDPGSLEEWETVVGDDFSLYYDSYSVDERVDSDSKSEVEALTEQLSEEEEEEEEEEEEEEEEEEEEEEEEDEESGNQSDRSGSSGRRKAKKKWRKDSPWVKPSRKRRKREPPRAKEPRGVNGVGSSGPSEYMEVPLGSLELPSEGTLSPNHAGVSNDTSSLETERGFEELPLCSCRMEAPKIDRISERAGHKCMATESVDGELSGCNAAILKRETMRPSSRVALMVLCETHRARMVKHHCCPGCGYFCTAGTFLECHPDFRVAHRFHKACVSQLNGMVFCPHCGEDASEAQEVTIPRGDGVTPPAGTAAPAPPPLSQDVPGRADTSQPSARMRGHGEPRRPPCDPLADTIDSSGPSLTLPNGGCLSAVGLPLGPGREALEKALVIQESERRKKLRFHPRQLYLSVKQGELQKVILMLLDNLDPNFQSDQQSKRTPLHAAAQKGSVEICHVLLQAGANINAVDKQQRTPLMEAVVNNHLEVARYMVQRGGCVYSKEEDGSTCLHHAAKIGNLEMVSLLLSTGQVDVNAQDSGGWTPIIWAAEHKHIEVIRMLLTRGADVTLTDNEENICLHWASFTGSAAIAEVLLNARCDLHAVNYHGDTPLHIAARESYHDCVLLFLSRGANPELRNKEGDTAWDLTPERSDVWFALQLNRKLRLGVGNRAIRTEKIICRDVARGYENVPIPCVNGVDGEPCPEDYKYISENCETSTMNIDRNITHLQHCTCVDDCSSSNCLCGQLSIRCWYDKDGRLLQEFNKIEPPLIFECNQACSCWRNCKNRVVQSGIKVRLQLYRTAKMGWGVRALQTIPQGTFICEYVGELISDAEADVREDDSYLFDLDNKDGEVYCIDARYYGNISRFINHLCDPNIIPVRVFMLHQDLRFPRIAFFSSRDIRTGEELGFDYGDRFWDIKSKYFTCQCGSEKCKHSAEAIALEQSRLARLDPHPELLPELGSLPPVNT
Experimental: G9a Enzyme Activity Assay
The biochemical assay to measure G9a enzyme activity relies on time-resolved fluorescence energy transfer (TR-FRET) between europium cryptate (donor) and XL665 (acceptor). […] The human G9a enzyme expressed in a baculovirus infected Sf9 cell expression system was obtained from BPS Biosciences (Cat. #51001). Enzyme activity assay was carried out in a white 384-well plate in a final volume of 20 μl, as follow: • 4 μl of vehicle or studied compound 2.5× concentrated prepared in assay buffer (50 mM Tris-HCl, 10 mM NaCl, 4 mM DTT, 0.01% Tween-20 pH9). Final percentage of DMSO was 0.5%. • 2 μl of 1 nM G9a enzyme diluted in assay buffer. […] Final concentration 150 nM. • Then, add 5 μl of streptavidin XL665 beads. Final concentration of 16 μM. • Read the plate after 1 hour of incubation at room temperature.
(§5) For each well, fluorescence was measured at 620 nm and 665 nm. A ratio (665 nm/620 nm) was then calculated in order to minimize medium interferences. Positive control was obtained in the presence of the vehicle of the compounds. Negative control was obtained in the absence of G9a enzyme activity. Calculated IC50 values were determined using GraphPrism using 4-parameters inhibition curve.

human DNMT1 = molecular target: T2, human DNMT1 (Homo sapiens, UniProt P26358); assay: DNMT1 enzyme activity assay (TR-FRET, EPIgeneous methyltransferase assay); assay type: biochemical; conditions: human DNMT1, 15 minutes at 37° C.
T2 construct: purchased Reaction Biology Corp. DMT-21-124
T2 sequence (P26358 whole entry): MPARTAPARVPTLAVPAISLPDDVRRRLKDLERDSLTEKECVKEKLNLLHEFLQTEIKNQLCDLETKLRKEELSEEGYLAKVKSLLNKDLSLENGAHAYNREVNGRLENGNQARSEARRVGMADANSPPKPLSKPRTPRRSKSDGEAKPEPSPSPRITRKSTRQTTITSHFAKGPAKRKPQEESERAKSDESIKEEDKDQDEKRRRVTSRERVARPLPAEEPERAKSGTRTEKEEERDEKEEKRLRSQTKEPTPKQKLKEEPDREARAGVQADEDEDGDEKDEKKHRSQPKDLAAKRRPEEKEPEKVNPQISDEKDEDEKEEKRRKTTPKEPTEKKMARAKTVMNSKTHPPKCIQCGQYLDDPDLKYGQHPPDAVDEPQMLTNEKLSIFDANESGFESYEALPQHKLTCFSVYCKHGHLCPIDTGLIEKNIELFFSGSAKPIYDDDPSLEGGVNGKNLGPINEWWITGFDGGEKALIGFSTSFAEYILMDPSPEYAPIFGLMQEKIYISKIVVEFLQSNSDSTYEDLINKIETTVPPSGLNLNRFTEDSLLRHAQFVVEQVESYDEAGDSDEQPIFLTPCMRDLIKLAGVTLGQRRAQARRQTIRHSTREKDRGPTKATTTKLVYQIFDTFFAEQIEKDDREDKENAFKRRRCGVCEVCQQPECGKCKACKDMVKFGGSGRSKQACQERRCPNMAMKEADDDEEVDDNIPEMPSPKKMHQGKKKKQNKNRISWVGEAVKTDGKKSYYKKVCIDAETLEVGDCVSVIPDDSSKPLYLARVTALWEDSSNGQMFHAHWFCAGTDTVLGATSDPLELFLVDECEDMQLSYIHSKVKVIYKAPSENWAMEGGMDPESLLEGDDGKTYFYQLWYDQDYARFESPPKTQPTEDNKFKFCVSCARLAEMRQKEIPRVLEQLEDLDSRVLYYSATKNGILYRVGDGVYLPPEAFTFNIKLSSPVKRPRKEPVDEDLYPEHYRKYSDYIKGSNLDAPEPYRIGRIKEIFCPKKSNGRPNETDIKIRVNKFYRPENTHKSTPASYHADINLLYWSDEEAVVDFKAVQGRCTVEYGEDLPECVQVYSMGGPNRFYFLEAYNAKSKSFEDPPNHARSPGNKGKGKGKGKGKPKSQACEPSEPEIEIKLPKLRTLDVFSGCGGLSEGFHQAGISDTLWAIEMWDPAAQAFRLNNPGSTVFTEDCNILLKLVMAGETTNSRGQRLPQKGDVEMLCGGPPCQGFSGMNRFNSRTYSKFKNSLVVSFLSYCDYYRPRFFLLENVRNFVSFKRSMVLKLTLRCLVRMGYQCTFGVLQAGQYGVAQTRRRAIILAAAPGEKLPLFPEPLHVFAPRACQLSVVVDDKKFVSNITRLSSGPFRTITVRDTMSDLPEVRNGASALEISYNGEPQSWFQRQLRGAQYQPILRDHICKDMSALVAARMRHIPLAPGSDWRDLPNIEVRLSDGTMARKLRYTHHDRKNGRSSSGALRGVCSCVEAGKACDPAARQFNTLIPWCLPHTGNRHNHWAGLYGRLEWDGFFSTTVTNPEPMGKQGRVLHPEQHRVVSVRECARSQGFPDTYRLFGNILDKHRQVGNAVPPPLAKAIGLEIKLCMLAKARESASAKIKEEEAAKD
Experimental: DNMT1 Enzyme Activity Assay
The biochemical assay to measure DNMT1 enzyme activity relies on time-resolved fluorescence energy transfer (TR-FRET) between lumi4-Tb (donor) and d2 (acceptor) using the EPIgeneous methyltransferase assay (CisBio Cat#62SAHPEB). […] TR-FRET signal is inversely proportional to the concentration of SAH, product of DNMT1 enzyme activity, in the sample. The human DNMT1 was obtained from Reaction Biology Corp. (Cat# DMT-21-124).
Enzyme activity assay was carried out in a white 384-well plate in a final volume of 20 μl, as follow: • 4 μl of vehicle or studied compound 2.5× concentrated prepared in assay buffer (50 mM Tris-HCl, 1 mM EDTA, 1 mM DTT, 0.1% Triton X-100, 5% glycerol pH 7.5). Final percentage of DMSO was 0.5%. • 2 μl of 1 nM DNMT1 enzyme diluted in assay buffer.
as §5, with “compounds.” for “compounds. Negative control was obtained in the absence of G9a enzyme activity.”

PLC/PRF/5 = assay: Cell proliferation assay (CellTiter 96 Aqueous One Solution); assay type: cell-based; conditions: Homo sapiens, hepatocellular carcinoma cells, 48 hours of treatment
Experimental: as §1, §2, §3, §4

[1] = tested on: DNA methyltransferase (DNMT); conditions: selectivity in a methyltransferase enzyme panel including one DNMT, according to the authors; cited from earlier work

| SMILES | GI50 (HepG2) [nM] | GI50 (CEMO-1) [nM] | GI50 (Hep3B) [nM] | IC50 (human G9a enzyme) [nM] | IC50 (human DNMT1) [nM] | GI50 (PLC/PRF/5) [nM] | activity against the DNA methyltransferase [1] |
| --- | --- | --- | --- | --- | --- | --- | --- |
| COc1cc2c(N(C)C3CCN(C)CC3)cc(-c3ccc(C)o3)nc2cc1OCCCN1CCCC1 [Compound 1-02] | 1000 to 10000 | ≥ 10000 | 1000 to 10000 | – | – | – | – |
| COc1cc2c(N(C)CC3CCN(C)CC3)cc(-c3ccc(C)o3)nc2cc1OCCCN1CCCC1 [Compound 1-03] | 100 to 1000 | 1000 to 10000 | 100 to 1000 | 1000 to 10000 | 100 to 500 | – | – |
| CCc1ccc(-c2cc(N(C)CC3CCN(C)CC3)c3cc(OC)c(OCCCN4CCCC4)cc3n2)o1 [Compound 1-04] | 100 to 1000 | 100 to 1000 | 100 to 1000 | 500 to 1000 | 100 to 500 | – | – |
| COc1cc2c(OC3CCN(C)CC3)cc(-c3ccc(C)o3)nc2cc1OCCCN1CCCC1 [Compound 3-01, 6-methoxy-2-(5-methyl-2-furyl)-4-[(1-methyl-4-piperidyl)oxy]-7-(3-pyrrolidin-1-ylpropoxy)quinoline] | 1000 to 10000 | 1000 to 10000 | 1000 to 10000 | – | – | 1000 to 10000 | – |
| COc1cc2nc(N3CCCN(C)CC3)cc(NC3CCN(Cc4ccccc4)CC3)c2cc1OC [Compound 41] | – | – | – | – | – | – | inactive |
| COc1cc2nc(N3CCN(C)CC3)cc(NC3CCN(Cc4ccccc4)CC3)c2cc1OC [Compound 42] | – | – | – | – | – | – | inactive |
